Measured values as given in the Bradley open melting point set (2014).

Question: For `CCCCCCCCCCCCCCCCC1CO1` (configuration not stated) [2-Hexadecyloxirane], which melting point is on record?
Answer: 26 °C

Question: For `O=C(c1ccccc1)C(O)c1ccccc1` (configuration not stated) [2-Hydroxy-1,2-diphenylethanone], which melting point is on record?
Answer: 135 °C

Question: For `OCCSSCCO` [2-Hydroxyethyl Disulfide], which melting point is on record?
Answer: 26 °C

Question: With `CC(C)(C)I` [2-Iodo-2-methylpropane] as the molecule, how does the melting point read?
Answer: -38 °C

Question: Which melting point does the source give for `O=C(O)c1ccccc1I` [2-Iodobenzoic acid] here?
Answer: 162 °C

Question: Which melting point does the source give for `Oc1ccccc1I` [2-Iodophenol] here?
Answer: 38.5 °C

Question: For `COc1ccccc1O` [2-Methoxyphenol], which melting point is on record?
Answer: 28 °C

Question: For `Cc1c(C(=O)O)cc([N+](=O)[O-])cc1[N+](=O)[O-]` [2-Methyl-3,5-dinitrobenzoic acid], which melting point is on record?
Answer: 206 °C

Question: For `Cc1ccc([N+](=O)[O-])cc1N` [2-Methyl-5-nitroaniline], which melting point is on record?
Answer: 108 °C

Question: Which melting point does the source give for `CCCCCCC(C)C` [2-Methyloctane] here?
Answer: -80 °C

Question: With `CC(C)(C)N` [2-Methylpropan-2-amine] as the molecule, how does the melting point read?
Answer: -67 °C

Question: With `Oc1ccc2ccccc2c1` [2-Naphthol] as the molecule, how does the melting point read?
Answer: 122 °C

Question: For `O=[N+]([O-])c1cc(Cl)ccc1O` [2-Nitro-4-chlorophenol], which melting point is on record?
Answer: 89 °C

Question: Which melting point does the source give for `O=C(O)c1ccccc1[N+](=O)[O-]` [2-Nitrobenzoic acid] here?
Answer: 147 °C

Question: With `O=C1OC(c2ccccc2)=NC1=Cc1ccco1` [2-Oxazolin-5-one, 4-furfurylidene-2-phenyl-] as the molecule, how does the melting point read?
Answer: 159 °C

Question: Which melting point does the source give for `O=C1OC(c2ccccc2)=NC1=Cc1ccc(-c2ccccc2)o1` [2-Phenyl-4-(5-phenyl-furan-2-ylmethylene)-4H-oxazol-5-one] here?
Answer: 143 °C

Question: For `OCCc1ccccc1` [2-Phenyl-Ethanol], which melting point is on record?
Answer: -27 °C

Question: For `O=C1C=C(NCCc2ccccn2)C(=O)c2ccccc21` [2-[(2-pyridin-2-ylethyl)amino]naphthalene-1,4-dione], which melting point is on record?
Answer: 129 °C

Question: With `CC(=O)Nc1ccc([N+](=O)[O-])cn1` [2-acetamido-5-nitropyridine] as the molecule, how does the melting point read?
Answer: 200 °C

Question: Which melting point does the source give for `CC(=O)Nc1nccs1` [2-acetamidothiazole] here?
Answer: 203 °C

Question: Which melting point does the source give for `CC(=O)OCC(=O)c1ccccc1` [2-acetoxy_acetophenone] here?
Answer: 89 °C

Question: With `CC(=O)c1ccc(Cl)s1` [2-acetyl-5-chlorothiophene] as the molecule, how does the melting point read?
Answer: 46 °C

Question: For `CC(=O)c1ccc2ccccc2c1` [2-acetylnaphthalene], which melting point is on record?
Answer: 54 °C

Question: For `C=CCc1ccccc1O` [2-allylphenol], which melting point is on record?
Answer: -6 °C

Question: With `CC(C)(C)N` [2-amino-2-methylpropane] as the molecule, how does the melting point read?
Answer: -68 °C

Question: For `CCc1ccc(C)nc1N` [2-amino-3-ethyl-6-methylpyridine], which melting point is on record?
Answer: 47 °C

Question: For `Nc1ncccc1O` [2-amino-3-hydroxypyridine], which melting point is on record?
Answer: 170 °C

Question: Which melting point does the source give for `Nc1cc(F)c(F)cc1C(=O)O` [2-amino-4,5-difluorobenzoic acid] here?
Answer: 182 °C

Question: With `Nc1nc(-c2ccc(Br)cc2)cs1` [2-amino-4-(4-bromophenyl)thiazole] as the molecule, how does the melting point read?
Answer: 184 °C

Question: Which melting point does the source give for `CCSc1nnc(N)s1` [2-amino-5-ethylthio-1,3,4-thiadiazole] here?
Answer: 132 °C

Question: With `Nc1nc2ccc([N+](=O)[O-])cc2s1` [2-amino-6-nitrobenzothiazole] as the molecule, how does the melting point read?
Answer: 248 °C

Question: With `CCC(C)N` (configuration not stated) [2-aminobutane] as the molecule, how does the melting point read?
Answer: -104 °C

Question: For `O=C(O)c1ccccc1C(=O)c1ccccc1` [2-benzoylbenzoic acid], which melting point is on record?
Answer: 129 °C

Question: Which melting point does the source give for `O=C(O)C(=Cc1ccccc1)Cc1ccccc1` [2-benzyl-3-phenylacrylic acid] here?
Answer: 158 °C

Question: With `OB(O)c1cccnc1OCc1ccccc1` [2-benzyloxypyridine-3-boronic acid] as the molecule, how does the melting point read?
Answer: 146 °C

Question: With `CC(C)(C)Br` [2-bromo-2-methylpropane] as the molecule, how does the melting point read?
Answer: -16 °C

Question: With `CC(Br)C(C)(C)C` (configuration not stated) [2-bromo-3,3-dimethylbutane] as the molecule, how does the melting point read?
Answer: 25 °C

Question: Which melting point does the source give for `CCN(CC)c1ccc(C(=O)CBr)cc1` [2-bromo-4'-(diethylamino)acetophenone] here?
Answer: 51 °C

Question: Which melting point does the source give for `Cc1ccc(N)c(Br)c1` [2-bromo-4-methylaniline] [listing 1 of 2 here] here?
Answer: 14 °C

Question: For `Cc1ccc(N)c(Br)c1` [2-bromo-4-methylaniline] [listing 2 of 2 here], which melting point is on record?
Answer: 15 °C

Question: Which melting point does the source give for `Cc1ccc([N+](=O)[O-])cc1Br` [2-bromo-4-nitrotoluene] here?
Answer: 76 °C

Question: For `OCc1ccnc(Br)c1` [2-bromo-4-pyridinemethanol], which melting point is on record?
Answer: 61 °C

Question: Which melting point does the source give for `FC(F)(F)c1ccc(Br)nc1` [2-bromo-5-(trifluoromethyl)pyridine] here?
Answer: 46 °C

Question: With `Cc1c(Br)cccc1[N+](=O)[O-]` [2-bromo-6-nitrotoluene] as the molecule, how does the melting point read?
Answer: 40 °C

Question: For `Brc1nc2ccccc2[nH]1` [2-bromobenzimidazole], which melting point is on record?
Answer: 198 °C

Question: For `O=C(O)c1ccccc1Br` [2-bromobenzoic acid], which melting point is on record?
Answer: 148 °C

Question: For `Brc1ccccc1-c1ccccc1` [2-bromobiphenyl], which melting point is on record?
Answer: 2 °C

Question: For `Brc1ccc2ccccc2c1` [2-bromonaphthalene], which melting point is on record?
Answer: 55 °C

Question: With `CC(C)Br` [2-bromopropane] as the molecule, how does the melting point read?
Answer: -89 °C

Question: For `OB(O)c1cc2ccccc2nc1Br` [2-bromoquinoline-3-boronic acid], which melting point is on record?
Answer: 146 °C

Question: With `CCC(C)S` (configuration not stated) [2-butanethiol] as the molecule, how does the melting point read?
Answer: -140 °C

Question: With `OCC#CCO` [2-butyne-1,4-diol] as the molecule, how does the melting point read?
Answer: 57 °C

Question: Which melting point does the source give for `CC#CCOS(=O)(=O)c1ccc(C)cc1` [2-butynyl p-toluenesulfonate] here?
Answer: 48 °C

Question: Which melting point does the source give for `O=C(O)c1ccccc1OP(=O)(O)O` [2-carboxyphenyl phosphate] here?
Answer: 164 °C

Question: Which melting point does the source give for `O=C(CCl)Nc1ccccc1[N+](=O)[O-]` [2-chloro-2'-nitroacetanilide] here?
Answer: 88 °C

Question: With `N#Cc1cc(-c2ccccc2)cnc1Cl` [2-chloro-3-cyano-5-phenylpyridine] as the molecule, how does the melting point read?
Answer: 145 °C

Question: For `CCNc1nc(Cl)nc(NCC)n1` [2-chloro-4,6-bis(ethylamino)-1,3,5-triazine], which melting point is on record?
Answer: 228 °C

Question: With `OB(O)c1ccc(C(F)(F)F)cc1Cl` [2-chloro-4-(trifluoromethyl)benzeneboronic acid] as the molecule, how does the melting point read?
Answer: 111 °C

Question: Which melting point does the source give for `CN(C)c1ccc(C=O)c(Cl)c1` [2-chloro-4-dimethylaminobenzaldehyde] here?
Answer: 80 °C

Question: For `Oc1ccc(F)cc1Cl` [2-chloro-4-fluorophenol], which melting point is on record?
Answer: 22 °C

Question: With `COc1ccc(B(O)O)c(Cl)c1` [2-chloro-4-methoxybenzeneboronic acid] as the molecule, how does the melting point read?
Answer: 202 °C

Question: For `COc1ccc(CC#N)c(Cl)c1` [2-chloro-4-methoxyphenylacetonitrile], which melting point is on record?
Answer: 42 °C

Question: For `Nc1ccc([N+](=O)[O-])cc1Cl` [2-chloro-4-nitroaniline], which melting point is on record?
Answer: 108 °C

Question: Which melting point does the source give for `O=C(O)c1ccc([N+](=O)[O-])cc1Cl` [2-chloro-4-nitrobenzoic acid] here?
Answer: 142 °C

Question: With `N#Cc1ccc([N+](=O)[O-])cc1Cl` [2-chloro-4-nitrobenzonitrile] as the molecule, how does the melting point read?
Answer: 80 °C

Question: Which melting point does the source give for `O=[N+]([O-])c1ccc(O)c(Cl)c1` [2-chloro-4-nitrophenol] here?
Answer: 110 °C

Question: For `O=[N+]([O-])c1cc[n+]([O-])c(Cl)c1` [2-chloro-4-nitropyridine n-oxide], which melting point is on record?
Answer: 154 °C

Question: Which melting point does the source give for `Nc1cc(C(F)(F)F)ccc1Cl` [2-chloro-5-(trifluoromethyl)aniline] here?
Answer: 9 °C

Question: With `Cc1ccc(Cl)c(N)c1` [2-chloro-5-methylaniline] as the molecule, how does the melting point read?
Answer: 32 °C

Question: For `Cc1ccc(Cl)c(O)c1` [2-chloro-5-methylphenol], which melting point is on record?
Answer: 47 °C

Question: With `Nc1cc([N+](=O)[O-])ccc1Cl` [2-chloro-5-nitroaniline] as the molecule, how does the melting point read?
Answer: 119 °C

Question: For `O=C(O)c1cc([N+](=O)[O-])ccc1Cl` [2-chloro-5-nitrobenzoic acid], which melting point is on record?
Answer: 167 °C
